“Also recorded” adds a separate entry of the source.
System: PHTXS-13O human primary ovarian cancer xenografts
Assay: In vivo antitumor activity of Compound 1 in combination with PARP inhibitor in Patient Derived Xenograft (PDX) model
Conditions: PHTXS-13O PDX in nude mice
Procedure: To investigate in vivo antitumor activity of Compound 1 in combination with PARP inhibitor, tests using Patient Derived Xenograft (PDX) model were conducted. Patient Derived Tumors were inoculated by the following Method.
Method: Patient Derived Tumors were maintained in nude mice by subcutaneous inoculation of tumor pieces (approx. 2×2×2 mm) into nude mice. Mice with tumor size of approximately 130 mm^3 (e.g., 125-130 mm^3) for xenograft studies were randomly assigned to dose groups on the day (Day 0) before start date of dosing.
Compound 1 (crystalline form I) was suspended in solution comprising 0.5 w/v % methylcellulose and administered orally to mice.
Tumor size was measured by caliper and tumor volume was estimated using the equation V=(LW^2)/2, where L and W are tumor length and width, respectively and reported in cubic millimeters.
Statistical analyses of combination effect for tumor growth was conducted as follows; […]
For synergy analyses, the observed differences in the log tumor values were used to calculate AUC values for each animal In instances when an animal in a treatment group was removed from the study, the last observed tumor value was carried forward through all subsequent time points. The AUC for the control, or vehicle, group was calculated using the predicted values from the pairwise models described above. […]

`Cc1[nH]ncc1-c1cc2nc([C@@H]3CC4CCN3CC4)[nH]c(=O)c2s1` [Compound 1, 2-[(2S)-1-azabicyclo[2.2.2]oct-2-yl]-6-(3-methyl-1H-pyrazol-4-yl)thieno[3,2-d]pyrimidin-4(3H)-one] was tested, and the “antitumor activity (tumor volume) of Compound 1 combined with olaparib” value (Compound 1 40 or 60 mg/kg once daily orally Day 1-14 + olaparib 25 or 50 mg/kg daily orally Days 1-14, compared to either single treatment alone (FIG. 2)) was “good antitumor efficacy; also recorded: strong antitumor activity” and the “antitumor activity (tumor volume) of Compound 1 combined with niraparib” value (Compound 1 40 or 60 mg/kg once daily orally Day 1-21 + niraparib 25 or 50 mg/kg daily orally Days 1-21, compared to either single treatment alone (FIG. 1)) was “good antitumor efficacy; also recorded: strong antitumor activity”.

Source: US20240173323A1, “COMBINATION THERAPY FOR CANCER TREATMENT” (Takeda Pharmaceutical Company Limited, priority 2021, published 2024)
